Test results published in patent US20220110916A1, “Antioxidant and Use Thereof” (Bioradical Research Institute Corp., priority 2019, published 2022).

How the values were obtained:
[1] = tested on: neutrophils isolated from the peripheral blood of healthy individuals; test: Superoxide production amount of PMA-stimulated neutrophils with PBS solutions stored for 10 days vs immediately after preparation; format: cell-based, human; conditions: PBS solution stored for 10 days vs immediately after preparation; 0, 6.25, 12.5, 25, 50, 100 or 20 μmol/l; FIG. 4
Description: (§1) First, ED2AP, BisEp-C3, edaravone, BisEp-C1, or BisEp-C1 (H2) was added to a neutrophil of 4×10^5 cells per sample so as to achieve a predetermined concentration (0, 12.5, 25, 50, 100, or 200 μmol/l, or 0, 125, 250, 500, 1250, 2500, or 5000 μmol/l) with 5 μmol of CLA, and then the cell suspension was seeded in flat-bottomed 96-well plates. The volume of the suspension was 200 μl/well, and phenol red free Ca+, Mg+ HBSS was used as the solution. In addition, the neutrophil was stimulated by adding PMA so as to achieve a concentration of 100 ng/ml. After the stimulation, a plate reader (Envision 2104 Multilabel Reader, produced by Perkin Elmer Co., Ltd.) was used to measure the chemiluminescence value over time for 30 minutes with the PMA stimulation time being a reference. The measurement interval was 30 seconds. The sum of the chemiluminescence values obtained every 30 seconds for 30 minutes was taken as the superoxide production amount. In addition, as a control, the superoxide production amount was measured in the same manner except that each compound was not added. The relative value of the superoxide production amount when each compound was added was calculated with the superoxide production amount of the control being 100.
PBS solutions of ED2AP, BisEp-C3, and edaravone were prepared in the same manner as in Example 2 and stored for 10 days. The superoxide production amount was calculated in the same manner as in Example 4 except that the PBS solution after storage was added instead of ED2AP, BisEp-C3, edaravone, BisEp-C1 or BisEp-C1 (H2) so as to achieve a predetermined concentration (0, 6.25, 12.5, 25, 50, 100 or 20 μmol/l) of ED2AP, BisEp-C3 or edaravone. Further, PBS solutions of ED2AP, BisEp-C3, and edaravone were prepared in the same manner as in Example 2, and the superoxide production amount was calculated in the same manner except that the PBS solution immediately after preparation was used. Then, the relative value of the superoxide production amount of each sample was calculated with the superoxide production amount of the sample of 0 μmol/l being 100.

[2] = tested on: rat neuroid cells B50; test: Alleviation of singlet oxygen (Rose Bengal + G-LED) cytotoxicity, Alamar Blue fluorescence; format: cell-based; conditions: for recovery of the fluorescence intensity (cellular activity): 0, 12.5, 25, 50, or 100 μmol/l, 200 nmol/l RB + G-LED 5 minutes, FIG. 3; for cytoprotective function compared with edaravone: B50 cells, RB + G-LED singlet oxygen
Description: Edaravone, ED2AP and BisEp-C3 were examined whether they had the function of alleviating neuronopathy. Specifically, singlet oxygen was generated by combining Rose Bengal (RB), which is a sensitizer, with green light (G-LED), and the function of alleviating the cytotoxicity of the generated singlet oxygen was examined with the cellular activity being an indicator.
First, rat neuroid cells B50 were cultured in 12-well dishes at 2×10^5 cells/well (medium: RPMI-1640 medium containing 5% FCS) overnight. After the culturing, the medium of each well was replaced with HBSS (1000 μl/well; phenol red free Ca+, Mg+) containing 200 nmol/l RB and edaravone, ED2AP, or BisEp-C3 having a predetermined concentration (0, 12.5, 25, 50, or 100 μmol/l). The dish was then irradiated with G-LED for 5 minutes to generate singlet oxygen. Thereafter, the medium of each well was replaced with 1000 μl of HBSS and Alamar Blue was added. The dish was then allowed to react for about 2 hours in an incubator at 37° C. and 5% CO2. After the reaction, fluorescence intensity (excitation wavelength: λ-560 nm, fluorescence wavelength: λ-595 nm) was measured with a plate reader (infinite200, Tecan Trading AG). In this experimental system, the higher the cellular activity, the more Alamar Blue is taken up and the higher the fluorescence intensity. As a control, fluorescence intensity was measured in the same manner except that sodium azide (Azide, NaN3) was added instead of the compounds so as to achieve a concentration of 4 mmol/l. As a negative control (NC), fluorescence intensity was measured in the same manner except that RB was not added. The relative value of the fluorescence intensity in the sample to which each compound was added was calculated with the fluorescence intensity of the negative control being 100.

[3] = tested on: neutrophils isolated from the peripheral blood of healthy individuals; test: Superoxide production amount of PMA-stimulated neutrophils, CLA chemiluminescence; format: cell-based, human; conditions: for relative value of the superoxide production amount: 0-200 μmol/l or 0-5000 μmol/l, PMA 100 ng/ml, control being 100, FIG. 2; for reactive oxygen species-eliminating ability compared with edaravone: PMA-stimulated neutrophils, FIG. 2(A)
Description: For examining the reactive oxygen-eliminating effect of the antioxidant of the present invention, the superoxide produced by the neutrophils when the neutrophils isolated from the peripheral blood of healthy individuals were stimulated with PMA (phorbor-12-myristate-13-acetate) was used. The superoxide production amount was measured by chemiluminescence using CLA (2-methyl-6-pjenyl-3, 7-dihydroimidazo[1,2-a]pyrazine-3-one).
as §1

Row | SMILES | superoxide-eliminating ability after storage [1] | recovery of the fluorescence intensity (cellular activity) [2] | cytoprotective function compared with edaravone [2] | relative value of the superoxide production amount [3] | reactive oxygen species-eliminating ability compared with edaravone [3]
1 | CCN1N=C(C)/C(=C\C=C\c2c(C)nn(CC)c2O)C1=O (racemic) [BisEp-C3, 2,4-dihydro-4-[3-(1-ethyl-5-hydroxy-3-methyl-1H-pyrazol-4-yl)-2-propen-1-ylidene]-2-ethyl-5-methyl-3H-pyrazol-3-one] | maintained the superoxide-eliminating ability equivalent to that immediately after preparation even after storage | recovered in a concentration-dependent manner | higher than that of edaravone | suppressed the superoxide production amount in a concentration-dependent manner | more potent than edaravone at high concentrations
2 | CC1=NN(c2ccccc2)C(=O)/C1=C/C=C/c1c(C)nn(-c2ccccc2)c1O (racemic) [ED2AP, 2,4-dihydro-4-[3-(5-hydroxy-3-methyl-1-phenyl-1H-pyrazol-4-yl)-2-propen-1-ylidene]-5-methyl-2-phenyl-3H-pyrazol-3-one] | maintained the superoxide-eliminating ability equivalent to that immediately after preparation even after storage | recovered in a concentration-dependent manner | higher than that of edaravone | suppressed the superoxide production amount in a concentration-dependent manner | more potent than edaravone at high concentrations
